Results: patent US10626144B2, “Peptide derivatives and uses thereof” (Nosopharm, priority 2014, dated 2020)
Where two headings read alike, the source gives them in different places. Numbered stars: 1 amine (or outer) side, 2 acyl side, 3 side chain; on linkers, the order of the positions; unused ones are H or OH. Square brackets hold non-standard residues; d marks the D form. Peptide text beside a SMILES is read from it. * marks the point of attachment. ξ: configuration not given here. Phe(3,4-(OMe)2) = COc1ccc(C[C@H](N)C(=O)O)cc1OC; X1 = O=C([C@H](Cc1cc(F)c(F)cc1F)N[*:1])[*:2]; Abu(4,4,4-F3) = N[C@@H](CC(F)(F)F)C(=O)O; Phe(4-CN) = N#Cc1ccc(C[C@H](N)C(=O)O)cc1; Phe(3-F) = N[C@@H](Cc1cccc(F)c1)C(=O)O; Phe(3-Me) = Cc1cccc(C[C@H](N)C(=O)O)c1; Dab(3S-OH) = NC[C@H](O)[C@H](N)C(=O)O; Phe(2-F) = N[C@@H](Cc1ccccc1F)C(=O)O; Lys(5ξ-OH) = NCC(O)CC[C@H](N)C(=O)O; ΔZArg = N=C(N)NCC/C=C(\N)C(=O)O; dOrn = NCCC[C@@H](N)C(=O)O; NH(CH2)4NH2 = NCCCCN*

Assays:
Ec #2 (MIN) = test: MIC / resistance profile, multidrug-resistant strain; details: multidrug-resistant E. coli MIN
[1] = tested on: Acinetobacter baumannii ATCC 19606; test: MIC, broth microdilution (CLSI), reference strain; details: CAMHB
Ec #4 (GUE) = test: MIC / resistance profile, multidrug-resistant strain; details: multidrug-resistant E. coli GUE
[2] = molecular target: N-type calcium channels (Cav2.2) (Rattus norvegicus (Rat), UniProt Q02294); test: biochemical; type: binding
[3] = tested on: Staphylococcus aureus ATCC 13709; test: MIC, broth microdilution (CLSI), reference strain; details: CAMHB
[4] = tested on: Escherichia coli ATCC 25922; test: MIC, broth microdilution (CLSI), reference strain; details: CAMHB
Ec #1 (NCTC13476) = test: MIC / resistance profile, multidrug-resistant strain; details: multidrug-resistant E. coli NCTC13476
[5] = tested on: Pseudomonas aeruginosa ATCC 27853; test: MIC, broth microdilution (CLSI), reference strain; details: CAMHB
Ec #5 (DSM22315) = test: MIC / resistance profile, multidrug-resistant strain; details: multidrug-resistant E. coli DSM22315
Ec #3 (EGB957) = test: as above; details: multidrug-resistant E. coli EGB957
[6] = tested on: Klebsiella pneumoniae ATCC BAA2470; test: Murine peritonitis/sepsis model with analog 24.66 (Example 12); details: 20 mg/kg i.v. single bolus, N=8
Protocol: Female CD-1 mice (weight, 25 g; Charles River) were used throughout the study. Six groups of 8 mice were inoculated by intraperitoneal (i.p.) injection of 0.5 ml Klebsiella pneumoniae ATCC BAA2470 suspension containing 10^8.1 CFU/ml in 0.9% sterile saline and 5% (wt/vol) mucin. One hour after bacterial challenge on day 0, mice were treated by intravenous (i.v.) route with the antibiotic solutions formulated in 0.9% sterile saline.
One group was administered with single bolus dose of tigecycline at 20 mg/kg. One group received no treatment.

[7] = tested on: Klebsiella pneumoniae ATCC BAA2470; test: Murine peritonitis/sepsis model with Odilorhabdin A (Example 13); type: in vivo, CD-1 mice
[8] = class symbol, rat cerebral cortex, [125I]ω-conotoxin GVIA 0.001 nM, 30 minutes at room temperature, read-out: IC50 Cav2.2
[9] = value in brackets, rat cerebral cortex, [125I]ω-conotoxin GVIA 0.001 nM, read-out: IC50 Cav2.2

Compound | MIC Ec#2 (Ec #2 (MIN)) | Ab: MIC Acinetobacter baumannii ATCC 19606 [1] | MIC Ec#4 (Ec #4 (GUE)) | IC50 [2, 8] [nM] | Sa: MIC Staphylococcus aureus ATCC 13709 [3] | Ec: MIC Escherichia coli ATCC 25922 [4] | MIC Ec#1 (Ec #1 (NCTC13476)) | Pa: MIC Pseudomonas aeruginosa ATCC 27853 [5] | MIC Ec#5 (Ec #5 (DSM22315)) | MIC Ec#3 (Ec #3 (EGB957)) | Alive animals at 24 hrs [6] | Alive animals at 24 hrs ([7]; 15 mg/kg i.v. single bolus, n=8 (tigecycline)) | IC50 [2] [nM] | IC50 [2, 9] [nM] | Alive animals at 24 hrs ([7]; 5 mg/kg i.v. single bolus, n=6) | Alive animals at 24 hrs ([7]; 10 mg/kg i.v. single bolus, n=8) | Alive animals at 24 hrs ([7]; 15 mg/kg i.v. single bolus, n=7) | Alive animals at 24 hrs ([7]; 20 mg/kg i.v. single bolus, n=8) | ED50 ([7]; single i.v. bolus one hour after i.p. challenge, 10^7.7 CFU/ml, observed 24 hours) [mg/kg]
Cc1cccc(C[C@H](NC(=O)[C@@H]2CCCN2C(=O)[C@@H](CCCN)NC(=O)CNC(=O)[C@H](C)NC(=O)[C@@H](NC(=O)[C@@H](N)CCCCN)[C@@H](O)CN)C(=O)N[C@@H](CCCCN)C(=O)N/C(=C\CCNC(=N)N)C(=O)O)c1 [24.153] (H-K[Dab(3S-OH)]AG[dOrn]P[Phe(3-Me)]K[ΔZArg]-OH) | ++ (≤8 μg/mL) | − (>32 μg/mL) | + (≤32 μg/mL) | > 300 | ++ (≤8 μg/mL) | ++ (≤8 μg/mL) | ++ (≤8 μg/mL) | − (>32 μg/mL) | ++ (≤8 μg/mL) | ++ (≤8 μg/mL) | – | – | – | – | – | – | – | – | –
CN(C)c1cc(NC(=O)CNC(C)(C)C)c(O)c2c1C[C@H]1C[C@H]3[C@H](N(C)C)C(O)=C(C(N)=O)C(=O)[C@@]3(O)C(O)=C1C2=O [Tigecycline, tigecycline, reference compound] | – | – | – | – | – | – | – | – | – | – | 8 | 8 | – | – | – | – | – | – | –
C[C@H](NC(=O)[C@@H](NC(=O)[C@@H](N)CCCCN)[C@@H](O)CN)C(=O)NCC(=O)N[C@H](CCCN)C(=O)N1CCC[C@H]1C(=O)N[C@@H](Cc1ccccc1F)C(=O)N[C@@H](CCCCN)C(=O)N/C(=C\CCNC(=N)N)C(=O)O [24.151] (H-K[Dab(3S-OH)]AG[dOrn]P[Phe(2-F)]K[ΔZArg]-OH) | + (≤32 μg/mL) | − (>32 μg/mL) | + (≤32 μg/mL) | > 300 | ++ (≤8 μg/mL) | ++ (≤8 μg/mL) | + (≤32 μg/mL) | − (>32 μg/mL) | ++ (≤8 μg/mL) | + (≤32 μg/mL) | – | – | – | – | – | – | – | – | –
COc1ccc(C[C@H](NC(=O)[C@@H]2CCCN2C(=O)[C@@H](CCCN)NC(=O)CNC(=O)[C@H](C)NC(=O)[C@@H](NC(=O)[C@@H](N)CCCCN)[C@@H](O)CN)C(=O)N[C@@H](CCCCN)C(=O)N/C(=C\CCNC(=N)N)C(=O)O)cc1 [24.154] (H-K[Dab(3S-OH)]AG[dOrn]PY(Me)K[ΔZArg]-OH) | ++ (≤8 μg/mL) | − (>32 μg/mL) | ++ (≤8 μg/mL) | > 300 | ++ (≤8 μg/mL) | ++ (≤8 μg/mL) | ++ (≤8 μg/mL) | − (>32 μg/mL) | ++ (≤8 μg/mL) | ++ (≤8 μg/mL) | – | – | – | – | – | – | – | – | –
C[C@H](NC(=O)[C@@H](NC(=O)[C@@H](N)CCCCN)[C@@H](O)CN)C(=O)NCC(=O)N[C@H](CCCN)C(=O)N1CCC[C@H]1C(=O)N[C@@H](Cc1cccc(F)c1)C(=O)N[C@@H](CCCCN)C(=O)N/C(=C\CCNC(=N)N)C(=O)O [24.152] (H-K[Dab(3S-OH)]AG[dOrn]P[Phe(3-F)]K[ΔZArg]-OH) | + (≤32 μg/mL) | − (>32 μg/mL) | + (≤32 μg/mL) | > 300 | ++ (≤8 μg/mL) | ++ (≤8 μg/mL) | + (≤32 μg/mL) | − (>32 μg/mL) | ++ (≤8 μg/mL) | + (≤32 μg/mL) | – | – | – | – | – | – | – | – | –
C[C@H](NC(=O)[C@@H](NC(=O)[C@@H](N)CCCCN)[C@@H](O)CN)C(=O)NCC(=O)N[C@H](CCCN)C(=O)N1CCC[C@H]1C(=O)N[C@@H](CC(F)(F)F)C(=O)N[C@@H](CCCCN)C(=O)N/C(=C\CCNC(=N)N)C(=O)O [24.109] (H-K[Dab(3S-OH)]AG[dOrn]P[Abu(4,4,4-F3)]K[ΔZArg]-OH) | + (≤32 μg/mL) | − (>32 μg/mL) | + (≤32 μg/mL) | – | ++ (≤8 μg/mL) | ++ (≤8 μg/mL) | + (≤32 μg/mL) | − (>32 μg/mL) | + (≤32 μg/mL) | + (≤32 μg/mL) | – | – | > 300 | 1000 | – | – | – | – | –
N=C(N)NCC/C=C(\NC(=O)[C@H](CCC(O)CN)NC(=O)[C@H](Cc1c[nH]cn1)NC(=O)[C@@H]1CCCN1C(=O)[C@@H](CCCN)NC(=O)CNC(=O)[C@@H](NC(=O)[C@@H](NC(=O)[C@@H](N)CCCCN)[C@@H](O)CN)[C@@H](O)CN)C(=O)N[C@@H](CCC(O)CN)C(=O)NCCCCN (stereo partly drawn) [Odilorhabdin A] (H-K[Dab(3S-OH)][Dab(3S-OH)]G[dOrn]PH[Lys(5ξ-OH)][ΔZArg][Lys(5ξ-OH)]-{NH(CH2)4NH2}; N-terminus and C-terminus assumed) | – | – | – | – | – | – | – | – | – | – | – | – | – | 25 | 0 | 2 | 4 | 6 | 13.9
C[C@H](NC(=O)[C@@H](NC(=O)[C@@H](N)CCCCN)[C@@H](O)CN)C(=O)NCC(=O)N[C@H](CCCN)C(=O)N1CCC[C@H]1C(=O)N[C@@H](Cc1cc(F)c(F)cc1F)C(=O)N[C@@H](CCCCN)C(=O)N/C(=C\CCNC(=N)N)C(=O)O [24.77] (H-K[Dab(3S-OH)]AG[dOrn]P[X1]K[ΔZArg]-OH) | + (≤32 μg/mL) | − (>32 μg/mL) | + (≤32 μg/mL) | – | ++ (≤8 μg/mL) | ++ (≤8 μg/mL) | + (≤32 μg/mL) | − (>32 μg/mL) | + (≤32 μg/mL) | ++ (≤8 μg/mL) | – | – | – | – | – | – | – | – | –
C[C@H](NC(=O)[C@@H](NC(=O)[C@@H](N)CCCCN)[C@@H](O)CN)C(=O)NCC(=O)N[C@H](CCCN)C(=O)N1CCC[C@H]1C(=O)N[C@@H](Cc1c[nH]c2ccccc12)C(=O)N[C@@H](CCCCN)C(=O)N/C(=C\CCNC(=N)N)C(=O)O [24.156] (H-K[Dab(3S-OH)]AG[dOrn]PWK[ΔZArg]-OH) | ++ (≤8 μg/mL) | − (>32 μg/mL) | ++ (≤8 μg/mL) | – | ++ (≤8 μg/mL) | ++ (≤8 μg/mL) | + (≤32 μg/mL) | − (>32 μg/mL) | ++ (≤8 μg/mL) | ++ (≤8 μg/mL) | – | – | – | – | – | – | – | – | –
C[C@H](NC(=O)[C@@H](NC(=O)[C@@H](N)CCCCN)[C@@H](O)CN)C(=O)NCC(=O)N[C@H](CCCN)C(=O)N1CCC[C@H]1C(=O)N[C@@H](Cc1ccc(C#N)cc1)C(=O)N[C@@H](CCCCN)C(=O)N/C(=C\CCNC(=N)N)C(=O)O [24.100] (H-K[Dab(3S-OH)]AG[dOrn]P[Phe(4-CN)]K[ΔZArg]-OH) | ++ (≤8 μg/mL) | − (>32 μg/mL) | ++ (≤8 μg/mL) | – | ++ (≤8 μg/mL) | ++ (≤8 μg/mL) | ++ (≤8 μg/mL) | − (>32 μg/mL) | + (≤32 μg/mL) | ++ (≤8 μg/mL) | – | – | – | – | – | – | – | – | –
COc1ccc(C[C@H](NC(=O)[C@@H]2CCCN2C(=O)[C@@H](CCCN)NC(=O)CNC(=O)[C@H](C)NC(=O)[C@@H](NC(=O)[C@@H](N)CCCCN)[C@@H](O)CN)C(=O)N[C@@H](CCCCN)C(=O)N/C(=C\CCNC(=N)N)C(=O)O)cc1OC [24.85] (H-K[Dab(3S-OH)]AG[dOrn]P[Phe(3,4-(OMe)2)]K[ΔZArg]-OH) | + (≤32 μg/mL) | − (>32 μg/mL) | ++ (≤8 μg/mL) | – | + (≤32 μg/mL) | ++ (≤8 μg/mL) | ++ (≤8 μg/mL) | − (>32 μg/mL) | + (≤32 μg/mL) | + (≤32 μg/mL) | – | – | > 300 | 1200 | – | – | – | – | –
